In this assay the test system is Leishmania infantum MHOM/MA(BE)/67. The assay is described as follows: Leishmania infantum macrophage screening assay, primary screen. The class given is cell-based. The following applies: 120 h, amastigotes in primary peritoneal mouse macrophages, 5 days incubation, % reduction in parasite burden, reference drugs, read-out: IC50 (50% inhibitory concentration). How it is done: Parasite and Cell Cultures. Two Leishmania species (L. infantum MHOM/MA(BE)/67 and L. donovani MHOM/ET/67/L82) were used. The strains were maintained in the Golden Hamster (Mesocricetus auratus). Amastigotes were collected from the spleen of an infected donor hamster using three centrifugation purification steps (300 rpm, keeping the supernatant, 2200 rpm, keeping the supernatants and 3500 rpm, keeping the pellet) and spleen parasite burdens were assessed using the Stauber technique (Stauber L A., Exp Parasitol. 18: 1-11 (1966)). Primary peritoneal mouse macrophages were used as host cell and were collected 2 days after peritoneal stimulation with a 2% potato starch suspension. All cultures and assays were conducted at 37° C. under an atmosphere of 5% CO2.
Compound Solutions/Dilutions. Compound stock solutions were prepared in 100% DMSO at 20 mM or mg/ml. Concentrations were standard and expressed in molar concentrations, except for natural products, drug mixtures and if the molecular weight was not known. […]
Drug Sensitivity Assays. […] After 5 days incubation, parasite burdens (mean number of amastigotes/macrophage) were microscopically assessed after staining the cells with a 10% Giemsa solution. The results were expressed as % reduction in parasite burden compared to untreated control wells and an IC50 (50% inhibitory concentration) was calculated. […]

This note sets out measurements from US9346834B2, “Boron-containing small molecules as antiprotozoal agents” (Anacor Pharmaceuticals, Inc., priority 2009, dated 2016).

Take `CCCCCCCCCCCCCCCCOP(=O)([O-])OCC[N+](C)(C)C` [miltefosin]: the IC50 came to 4.3 µM.
